The structures appear in SMILES notation.

The nature of series [1]: Oral toxicity according to OECD test guideline TG423. The class given is in vivo. The procedure:
(§1) As a safety test, AMES test was performed according to OECD test guideline TG471 (±S9 mix), and the result was negative. Oral toxicity was tested according to OECD test guideline TG423. […] Skin stimulation was tested according to OECD test guideline TG404, and the result was PII=0.5. Skin sensitizing potential was tested according to OECD test guideline TG442B.

Series [2] is classed as cell-based. To be noted: OECD TG471, ±S9 mix. The procedure: as §1
The next series deals with Female mice. The experiment in a line: Skin sensitization test by local lymph node assay (LLNA) method, SI value of materials. The class given is in vivo. To be noted: for SI (stimulation index, LLNA): test substance 50.0 w/v % in acetone:olive oil 4:1, 25 microliters per auricle, once a day for three days, BrdU intake by ELISA. The source says:
The present disclosure can provide an active-energy-ray-curable aqueous composition excellent in scratch resistance and storage stability and safe in skin sensitizing potential. Safety in skin sensitizing potential means that a SI value, which is a degree of sensitizing potential, is 3 or lower in a skin sensitization test by the LLNA method.
The “LLNA method” mentioned above is a skin sensitization test stipulated in OECD (Organisation for Economic Co-operation and Development) Test Guidelines. As described in literatures (e.g., “Functional Material”, September 2005 issue, Vol. 25, No. 9, p. 55), LLNA method judges that a stimulation index (SI value) of 3 or lower as a degree of skin sensitizing potential is non-problematic in terms of skin sensitizing potential.
The SI value was measured in the manner described below by a skin sensitization test according to a local lymph node assay (LLNA) method.
As the positive control substance, α-hexyl cinnamaldehyde (HCA, obtained from Wako Pure Chemical Industries, Ltd.) was used.
As the medium, a mixture liquid containing acetone (obtained from Wako Pure Chemical Industries, Ltd.) and olive oil (obtained from Fudimi Pharmaceutical Co., Ltd.) in a volume ratio of 4:1 (acetone:olive oil) was used.
Female mice were acclimated to the test substance, the positive control, and the medium control for 8 days including 6-day quarantine. No abnormalities were found in all of the animals during the quarantine/acclimation period.
Based on the body weights measured 2 days before the initiation of sensitization, the animals were separated into […] (4 mice/group) by the body weight stratified random sampling method in a manner that the body weight of each individual was within ±20% of the average body weight of all individuals. Each of the animals was 8 weeks old to 9 weeks old at the time of the initiation of sensitization.
The test substance was weighed out in a volumetric flask, and the volume of the test substance was adjusted to 1 mL with addition of the medium. The prepared liquid was poured into a light-blocked airtight container (formed of glass).
HCA was accurately weighed out in an amount of about 0.25 g, and adjusted to 1 mL with addition of the medium, to prepare a 25.0 w/v % liquid. The prepared liquid was poured into a light-blocked airtight container (formed of glass).
5-Bromo-2′-deoxyuridine (BrdU, obtained from Nacalai Tesque, Inc.) (200 mg) was accurately weighed out in a volumetric flask, and dissolved in saline (obtained from Otsuka Pharmaceutical Co., Ltd.) added in the flask by ultrasonic irradiation. Subsequently, the resultant was adjusted to a volume of 20 mL, to prepare a 10 mg/mL liquid (BrdU preparation liquid). The prepared liquid was sterilized by filtration through a sterilized filtration filter and poured into a sterilized container.
The preparation liquids of each test substance and the positive control substance, and the medium were each applied to both auricles of the animals by 25 microliters each. A micropipetter was used for the application. This treatment was performed once a day for three consecutive days.
About 48 hours after the final sensitization, the BrdU preparation liquid was intraperitoneally administered once by 0.5 mL per animal.
About 24 hours after the BrdU administration, the animals were subjected to euthanasia, and their auricular lymph nodes were removed. Surrounding tissues of the auricular lymph nodes were removed, and the auricular lymph nodes on both sides were collectively weighted. The average and the standard error of the weights of the auricular lymph nodes were calculated per group. After the mass measurement, the auricular lymph nodes were cryopreserved per individual in a biomedical freezer set to −20 degrees C.
After the auricular lymph nodes were returned to room temperature, the auricular lymph nodes were ground with addition of saline and suspended in the saline. […]

Series [3] is classed as in vivo. As to conditions: OECD TG404. The procedure:
as §1

With `C=CC(=O)N(C)CC(=O)OC` [Example A1-1, N-acryloyl-N-methylglycinemethyl ester], the “Fatal cases in oral toxicity test” value in series [1] (OECD TG423) is reported as “none of six cases was a fatal case”. The same molecule gave an LD50 in series [1] (in vivo, 2000 mg/kg, OECD TG423, oral) not below 2000 mg/kg. Also, the AMES test result in series [2] was “negative”. The “SI value (skin sensitizing potential)” value in the series on Female mice (OECD test guideline TG442B) stood at 1.00. Also, the “SI (stimulation index, LLNA)” value in the series on Female mice is “(see Synthesis example 1) SI = 1.00”. Also, the “PII (skin stimulation)” value in series [3] turned out to be 0.5. Regarding `C=CC(=O)NCCN(CCN(CCNC(=O)C=C)C(=O)C=C)C(=O)C=C` [Example B2-11], in the series on Female mice, the “SI (stimulation index, LLNA)” value was “FUJIFILM Corporation, FOM-03009, SI = 1.52”. As for `C=CC(=O)N(C)CC(=O)OCC` [Example A1-2, N-acryloyl-N-methylglycineethyl ester], the “SI (stimulation index, LLNA)” value in the series on Female mice is reported as “(see Synthesis example 2) SI = 1.02”.

Regarding `C=C(C)C(=O)OCCOCCOC(=O)C(=C)C` [Example B1-1], in the series with Female mice, the “SI (stimulation index, LLNA)” value is listed as “Shin-Nakamura Chemical Co., Ltd., “2G”, SI = 1.05”.

For the molecule `C=CC(=O)N(C)CCOC(C)=O` [Example A1-8, N-(2-Acetyloxyethyl)-N-methyl acrylamide], in the series on Female mice, the “SI (stimulation index, LLNA)” value is “(see Synthesis example 13) SI = 1.10”.

For the molecule `C=CC(=O)N(CC)CCN(CC)C(=O)C=C` [Example B2-2], the “SI (stimulation index, LLNA)” value with Female mice is “(see Synthesis example 10) SI = 1.33”. The same measure, in the same setting: the value for `C=CC(=O)NC(O)C(O)NC(=O)C=C` (stereo not drawn) [Example B2-7] was “Tokyo Chemical Industry Co., Ltd., (product No. D2864), SI = 1.01”; that for `C=CC(=O)N(C)CCCCCCN(C)C(=O)C=C` [Example B2-4] was “(see Synthesis example 12) SI = 1.58”. The same measure, in the same setting: to `C=CC(=O)N1CCC(C(=O)OCC)CC1` [Example A1-7, ethyl N-acryloylpiperidine-4-carboxylate] belongs “(see Synthesis example 7) SI = 1.70”. Still for that read-out and setting: to `C=C(C)C(=O)OCC(COC(=O)C(=C)C)OC(C)=O` [Example B1-6, 2-acetyl-1,3-glycerol dimethacrylate] belongs “(see Synthesis example 8) SI = 1.40”; to `C=CC(=O)OC1CC2CCC1(C)C2(C)C` (stereo not drawn) [Example A2-2, Isobornyl acrylate, reference compound], “Osaka Organic Chemical Industry Ltd., “Isobornyl acrylate”, SI = 8.30”; to `C=CC(=O)NCCNC(=O)C=C` [Example B2-6], “Tokyo Chemical Industry Co., Ltd., (product No. E1086), SI = 1.23”. Consider `C=CC(=O)N(C)C(C)C(=O)OC` (stereo not drawn) [Example A1-4, N-acryloyl-N-methylalaninemethyl ester], for which the “SI (stimulation index, LLNA)” value in the series with Female mice is listed as “(see Synthesis example 4) SI = 1.12”.

Regarding `C=CC(=O)N(C)CCN(C)C(=O)C=C` [Example B2-1], in the series with Female mice, the “SI (stimulation index, LLNA)” value is listed as “(see Synthesis example 9) SI = 1.20”.

For the molecule `C=CC(=O)NCNC(=O)C=C` [Example B2-5], in the series with Female mice, the “SI (stimulation index, LLNA)” value is given as “Tokyo Chemical Industry Co., Ltd., (product No. M2877), SI = 1.08”. On the same count and under the same terms, to `C=CC(=O)NCCCOCCOCCOCCCNC(=O)C=C` [Example B2-10] belongs “FUJIFILM Corporation, FOM-03008, SI = 1.24”; to `C=C(C)C(=O)OCC(CC)(COC(=O)C(=C)C)COC(=O)C(=C)C` [Example B1-3], “Shin-Nakamura Chemical Co., Ltd., “TMPT”, SI = 1.03”; to `C=CC(=O)NCCN(CCNC(=O)C=C)C(=O)C=C` [Example B2-9], “FUJIFILM Corporation, FOM-03007, SI = 1.44”. Still for that read-out and setting: the value for `C=C(C)C(=O)OCCO` [Example A2-1, 2-hydroxyethyl methacrylate, reference compound] was “Tokyo Chemical Industry Co., Ltd., “2-hydroxyethyl methacrylate” SI = 1.26”.
